Results published in PMC8821551, “Binding of cationic analogues of α-MSH to lipopolysaccharide and disruption of the cytoplasmic membranes caused bactericidal action against Escherichia coli” (Scientific Reports, 2022).
Residues, ends and D or L forms follow the SMILES beside them.

Columns and labels:
dye-loaded E. coli cells = assay: Viability of DiSC3(5) dye-loaded cells by plating; format: cell-based, Escherichia coli; settings: dye-loaded cells 10^6, HEPES-glucose buffer, two different days
Experimental: The membrane depolarization of E. coli cells was determined using a potentiometric fluorescent probe DiSC3(5), as described elsewhere. Briefly, mid-log phase E. coli cells were diluted to 10^6 CFU/mL in the same HEPES-glucose buffer and were incubated with DiSC3(5) and EDTA at 0.4 µM and 0.2 mM concentrations, respectively, for 1 h in the dark at 37 °C, till the maximum uptake of the probe occurred. Increasing concentrations of the studied peptides from 1 µM to 10 µM were then added to these dye-loaded cells in a quartz cuvette, and the fluorescence intensity was measured on spectrofluorimeter (Shimadzu RF-5301 PC) set as excitation at 622 nm and emission at 670 nm. The increase in fluorescence intensity accounted for the dissipation of membrane potential caused due to peptide treatment. Cells treated with 10 µM melittin were used as a positive control. Simultaneously, the dye-loaded cells were plated onto LB agar to estimate bacterial cell death.
Figure S1: Survival of dye-loaded cells (10^6) treated with various concentrations of peptides that correspond to the inner membrane depolarization. The dye-loaded E. coli cells suspended in HEPES-glucose buffer ([…]) were incubated with different concentration of α-MSH and its analogues for 2 minutes and further diluted in the same buffer and plated on LB agar plates. The plates were further incubated at 37 °C for 16 h. Next day the colonies were counted.^1 The experiment was performed on two different days and the representative values (mean ± SE) are shown in graph. (⁎, P < 0.05; ⁎⁎, P < 0.01, compared to that of control at the same concentration).

LPS from E. coli O55:B5 = assay: LPS binding assay (BODIPY-TR-cadaverine displacement); parameters: species or system Escherichia coli; settings: BC displacement, LPS 50 μg/mL, 5 µM BC, 50 mM Tris buffer pH 7.4, peptide 0.25 to 20 µM, Hill equation fit, mean Kd ± SD of two independent experiments, read-out: Kd (dissociation constant) with LPS
Experimental: The binding of α-MSH and its analogues to LPS was checked using BODIPY-TR-cadaverine (BC) as a fluorescent probe[24],[42]. BC fluorescence decreases when bound to cell-free LPS and increases when it is freely accessible in solution. LPS (50 μg/mL) from E. coli O55:B5 (Sigma-Aldrich, India) was incubated with 5 µM of BC in 50 mM Tris buffer (pH 7.4) for 4 h. Next, 800 µL of this LPS-BC mixture was added to varying concentrations (0.25 µM to 20 µM) of the peptides in a quartz cuvette, and the BC fluorescence was measured on a spectrofluorimeter (Shimadzu RF-5301 PC) with excitation at 580 nm and emission at 620 nm. Each experiment was done in duplicate independently. Increase in fluorescence intensities with increase in concentration of peptides were plotted and the dissociation constant (Kd) was calculated from each individual data set and is presented as mean value ± SD using Igor Pro 6.36 (Y = Bmax × Xˆh/(Kdˆh + Xˆh); where X: concentration of peptide (µM), Y: fluorescence intensity (a.u.), h: Hill slope)[43]. The molecular mass of LPS was taken as 20,000 Da as described elsewhere, and its concentration was calculated accordingly.
Table S1: The dissociation constant (Kd) of α-MSH and its analogues with LPS. […]

E. coli cells = assay: LPS competitive inhibition assay; format: cell-based, Escherichia coli; settings: peptide fixed at 10 µM, free LPS beyond 128 µg/mL; 10^5 CFU/mL mid-log cells, 90 min, 37 °C; peptide without LPS = 100% mortality
Experimental: To determine whether LPS could influence the peptide’s antimicrobial activity, the potency of the most charged analogue, KKK-MSH, was evaluated against E. coli in the presence of LPS, using the protocol reported elsewhere. Peptide and LPS from E. coli […] (Sigma-Aldrich, India) in equal volume (50 µL) were incubated in a 96-well sterile plate at 37 °C for 1 h. After that, 100 μL of mid-log E. coli cells were added (at a final concentration of 10^5 CFU/mL) to the LPS-peptide mixture for 90 min at 37 °C. The peptide concentration was kept constant at 10 µM, and the concentration of LPS was varied from 2 to 1024 μg/mL. After incubation, 50 μL of the reaction mixture from each well was diluted with an appropriate amount of HEPES-glucose buffer, spread on LB agar plates, and kept at 37 °C for 16 h. Then on the next day, colonies were counted and compared with control (in the absence of LPS, cells treated with only peptide were considered 100% mortal). Mortality was calculated using the following formula: %survival=CFU/mLintreatedsample/CFU/mLinuntreatedsample×100Cellmortality(%)=100-%survival

[1] = peptide 10 µM, 2 min of exposure

Structure (SMILES)	log reduction in cell viability of dye-loaded cells (dye-loaded E. coli cells; peptide 5 µM, 2 min exposure) [log]	log reduction in cell viability of dye-loaded cells (dye-loaded E. coli cells; [1]) [log]	Kd (LPS from E. coli O55:B5) [µM]	killing of E. coli cells in the presence of free LPS (E. coli cells)
CSCC[C@H](NC(=O)[C@H](CCCCN)NC(=O)[C@H](Cc1ccc(O)cc1)NC(=O)[C@H](CCCCN)NC(C)=O)C(=O)N[C@@H](C)C(=O)N[C@@H](Cc1c[nH]cn1)C(=O)N[C@@H](Cc1ccccc1)C(=O)N[C@@H](CCCNC(=N)N)C(=O)N[C@@H](Cc1c[nH]c2ccccc12)C(=O)NCC(=O)N[C@@H](CCCCN)C(=O)N1CCC[C@H]1C(=O)N[C@H](C(N)=O)C(C)C [KKA-MSH] (Ac-KYKMAHFRWGKPV-NH2)	1	1	–	–
CSCC[C@H](NC(=O)[C@H](CCCCN)NC(=O)[C@H](Cc1ccc(O)cc1)NC(=O)[C@H](CCCCN)NC(C)=O)C(=O)N[C@@H](CCCCN)C(=O)N[C@@H](Cc1c[nH]cn1)C(=O)N[C@@H](Cc1ccccc1)C(=O)N[C@@H](CCCNC(=N)N)C(=O)N[C@@H](Cc1c[nH]c2ccccc12)C(=O)NCC(=O)N[C@@H](CCCCN)C(=O)N1CCC[C@H]1C(=O)N[C@H](C(N)=O)C(C)C [KKK-MSH] (Ac-KYKMKHFRWGKPV-NH2)	1.73	2.1	9.8 ± 6.3	less than 20%
